# Measurements: paper PMC5814316 (Experimental Animals, 2017)
# Tests used:
# [1] = suffering and junctival irritation of the operator; cited from earlier work
# CYP3A4 [2] = target: T1, CYP3A4 (Homo sapiens, UniProt P08684); assay: in vitro; conditions: human liver microsomes
# CYP3A4 [3] = conditions: C-4 oxidation of CP; cited from earlier work
# CYP3A4 [4] = conditions: cited from earlier work
# CYP2C9 = conditions: C-4 oxidation of CP; cited from earlier work
# [5] = Pharmacokinetic study in rats: CP and DECP with and without KTZ, KTZ alone; assay type: in vivo; conditions: rat, plasma; for AUC(0-inf): AUC0→∞; for MRT inf: MRT0–∞
# [6] = Stability of DECP, CP and KTZ in rat plasma under storage conditions; assay type: physicochemical; conditions: for Short term stability, Measured / Short term stability, RE: 25 °C for 3 h; for stability throughout the whole manipulation and storage processes: short term, long term, freeze-thaw; for Long term stability, Measured / Long term stability, RE: −80 °C for 3 months; for Three freeze−thaw cycles, Measured / Three freeze−thaw cycles, RE: −80°C to 25°C
# CYP2B6 = conditions: C-4 oxidation of CP; cited from earlier work
# CYP3A4 [7] = target: T1, CYP3A4; assay: KTZ inhibition of CP conversion to DECP in HLM; conditions: human liver microsomes, probe CP (cyclophosphamide)
# rats = assay: Toxicity observation in rats after single dose KTZ; assay type: in vivo, rat
# [8] = iv, 10 mg/kg, Group 1 (0 mg/kg KTZ), CP 10 mg/kg i.v., rats
# [9] = iv, 10 mg/kg, Group 2 (10 mg/kg KTZ oral, 50 min before), CP 10 mg/kg i.v., rats
# [10] = iv, 10 mg/kg, Group 3 (20 mg/kg KTZ oral, 50 min before), CP 10 mg/kg i.v., rats
# [11] = iv, 10 mg/kg, Group 4 (40 mg/kg KTZ oral, 50 min before), CP 10 mg/kg i.v., rats
# T1 sequence (P08684 whole entry): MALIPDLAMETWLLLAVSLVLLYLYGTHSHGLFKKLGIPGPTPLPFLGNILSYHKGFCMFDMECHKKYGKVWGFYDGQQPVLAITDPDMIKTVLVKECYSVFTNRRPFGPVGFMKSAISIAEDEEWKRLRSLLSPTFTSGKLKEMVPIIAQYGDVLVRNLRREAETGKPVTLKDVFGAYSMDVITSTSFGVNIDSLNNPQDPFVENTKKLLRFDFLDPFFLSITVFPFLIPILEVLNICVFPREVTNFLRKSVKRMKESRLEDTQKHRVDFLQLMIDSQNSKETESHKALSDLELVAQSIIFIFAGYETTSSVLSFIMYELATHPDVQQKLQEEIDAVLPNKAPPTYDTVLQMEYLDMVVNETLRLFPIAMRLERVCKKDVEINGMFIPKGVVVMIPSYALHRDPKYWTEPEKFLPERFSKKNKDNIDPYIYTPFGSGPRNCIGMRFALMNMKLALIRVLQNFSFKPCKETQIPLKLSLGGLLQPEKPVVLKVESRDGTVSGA
smiles,measurement,setting,value
"O=CCCl [CAA, chloroacetaldehyde]",exposure level at which dangerous,[1],45 ppm
"O=P1(N(CCCl)CCCl)NCCCO1 (stereo not drawn) [CP, Cyclophosphamide]",Km,CYP3A4 [2],160 µM
same,share of the total CP bioactivation,CYP3A4 [3],25%
same,part of CP dechloroethylated to DECP and CAA,CYP3A4 [4],about 10%
same,share of the total CP bioactivation,CYP2C9,12%
same,AUC(0-t),"[5]; iv, 10 mg/kg, AUC0→t, Group 2 (10 mg/kg KTZ oral, 50 min before), CP 10 mg/kg i.v., rats",21100 ng·h/mL
same,AUC(0-t),"[5]; iv, 10 mg/kg, AUC0→t, Group 3 (20 mg/kg KTZ oral, 50 min before), CP 10 mg/kg i.v., rats",28700 ng·h/mL
same,AUC(0-t),"[5]; iv, 10 mg/kg, AUC0→t, Group 4 (40 mg/kg KTZ oral, 50 min before), CP 10 mg/kg i.v., rats",38200 ng·h/mL
same,AUC(0-inf),[5]; [8],15500 ng·h/mL
same,AUC(0-inf),[5]; [9],21900 ng·h/mL
same,AUC(0-inf),[5]; [10],29600 ng·h/mL
same,AUC(0-inf),[5]; [11],39000 ng·h/mL
same,Cmax,"[5]; iv, 10 mg/kg, Cmax, Group 1 (0 mg/kg KTZ), CP 10 mg/kg i.v., rats",9420 ng/mL
same,Cmax,"[5]; iv, 10 mg/kg, Cmax, Group 2 (10 mg/kg KTZ oral, 50 min before), CP 10 mg/kg i.v., rats",10400 ng/mL
same,Cmax,"[5]; iv, 10 mg/kg, Cmax, Group 3 (20 mg/kg KTZ oral, 50 min before), CP 10 mg/kg i.v., rats",11400 ng/mL
same,Cmax,"[5]; iv, 10 mg/kg, Cmax, Group 4 (40 mg/kg KTZ oral, 50 min before), CP 10 mg/kg i.v., rats",9600 ng/mL
same,MRT last,"[5]; iv, 10 mg/kg, MRT0–t, Group 1 (0 mg/kg KTZ), CP 10 mg/kg i.v., rats",1.7 ± 0.167 h
same,MRT last,"[5]; iv, 10 mg/kg, MRT0–t, Group 2 (10 mg/kg KTZ oral, 50 min before), CP 10 mg/kg i.v., rats",1.72 ± 0.357 h
same,MRT last,"[5]; iv, 10 mg/kg, MRT0–t, Group 3 (20 mg/kg KTZ oral, 50 min before), CP 10 mg/kg i.v., rats",2.04 ± 0.293 h
same,MRT last,"[5]; iv, 10 mg/kg, MRT0–t, Group 4 (40 mg/kg KTZ oral, 50 min before), CP 10 mg/kg i.v., rats",2.65 ± 0.482 h
same,MRT inf,[5]; [8],1.9 ± 0.345 h
same,MRT inf,[5]; [9],1.86 ± 0.6 h
same,MRT inf,[5]; [10],2.12 ± 0.361 h
same,MRT inf,[5]; [11],2.67 ± 0.505 h
same,Tmax,"[5]; iv, 10 mg/kg, Tmax, Group 1 (0 mg/kg KTZ), CP 10 mg/kg i.v., rats",0.194 ± 0.086 h
same,Tmax,"[5]; iv, 10 mg/kg, Tmax, Group 2 (10 mg/kg KTZ oral, 50 min before), CP 10 mg/kg i.v., rats",0.194 ± 0.086 h
same,Tmax,"[5]; iv, 10 mg/kg, Tmax, Group 3 (20 mg/kg KTZ oral, 50 min before), CP 10 mg/kg i.v., rats",0.139 ± 0.086 h
same,Tmax,"[5]; iv, 10 mg/kg, Tmax, Group 4 (40 mg/kg KTZ oral, 50 min before), CP 10 mg/kg i.v., rats",0.347 ± 0.327 h
same,"Short term stability, Measured",[6]; nominal 20 ng/ml,20.57 ± 0.81 ng/mL
same,"Short term stability, RE",[6]; nominal 20 ng/ml,2.85%
same,"Short term stability, Measured",[6]; nominal 80 ng/ml,84.49 ± 2.05 ng/mL
same,"Short term stability, RE",[6]; nominal 80 ng/ml,5.61%
same,"Short term stability, Measured",[6]; nominal 500 ng/ml,525.40 ± 73.09 ng/mL
same,"Short term stability, RE",[6]; nominal 500 ng/ml,5.08%
same,stability throughout the whole manipulation and storage processes,[6],stable
same,"Long term stability, Measured",[6]; nominal 20 ng/ml,18.79 ± 0.42 ng/mL
same,"Long term stability, RE",[6]; nominal 20 ng/ml,−6.05%
same,"Long term stability, Measured",[6]; nominal 80 ng/ml,81.16 ± 2.40 ng/mL
same,"Long term stability, RE",[6]; nominal 80 ng/ml,1.45%
same,"Long term stability, Measured",[6]; nominal 500 ng/ml,509.89 ± 68.17 ng/mL
same,"Long term stability, RE",[6]; nominal 500 ng/ml,1.98%
same,"Three freeze−thaw cycles, Measured",[6]; nominal 20 ng/ml,18.68 ± 0.20 ng/mL
same,"Three freeze−thaw cycles, RE",[6]; nominal 20 ng/ml,−6.60%
same,"Three freeze−thaw cycles, Measured",[6]; nominal 80 ng/ml,78.39 ± 1.43 ng/mL
same,"Three freeze−thaw cycles, RE",[6]; nominal 80 ng/ml,−2.01%
same,"Three freeze−thaw cycles, Measured",[6]; nominal 500 ng/ml,490.26 ± 78.18 ng/mL
same,"Three freeze−thaw cycles, RE",[6]; nominal 500 ng/ml,−1.95%
same,share of the total CP bioactivation,CYP2B6,approximately 45%
"CC(=O)N1CCN(c2ccc(OCC3COC(Cn4ccnc4)(c4ccc(Cl)cc4Cl)O3)cc2)CC1 (stereo not drawn) [KTZ, ketoconazole]",IC50,CYP3A4 [7],618 nM
same,"toxicity (physiological aspects, data not shown)",rats,no obvious toxicity
same,AUC(0-t),"[5]; po, 20 mg/kg",4730 ng·h/mL
same,Cmax,"[5]; po, 20 mg/kg",2050 ng/mL
same,MRT last,"[5]; po, 20 mg/kg",1.86 ± 0.193 h
same,Tmax,"[5]; po, 20 mg/kg",0.514 ± 0.399 h
same,"Short term stability, Measured",[6]; nominal 10 ng/ml,9.97 ± 0.23 ng/mL
same,"Short term stability, RE",[6]; nominal 10 ng/ml,−0.30%
same,"Short term stability, Measured",[6]; nominal 40 ng/ml,42.23 ± 0.76 ng/mL
same,"Short term stability, Measured",[6]; nominal 250 ng/ml,264.51 ± 38.66 ng/mL
same,"Short term stability, RE",[6]; nominal 250 ng/ml,5.80%
same,stability throughout the whole manipulation and storage processes,[6],stable
same,"Long term stability, Measured",[6]; nominal 10 ng/ml,9.55 ± 0.07 ng/mL
same,"Long term stability, RE",[6]; nominal 10 ng/ml,−4.50%
same,"Long term stability, Measured",[6]; nominal 40 ng/ml,40.04 ± 0.57 ng/mL
same,"Long term stability, RE",[6]; nominal 40 ng/ml,0.10%
same,"Long term stability, Measured",[6]; nominal 250 ng/ml,259.01 ± 37.39 ng/mL
same,"Long term stability, RE",[6]; nominal 250 ng/ml,3.64%
same,"Three freeze−thaw cycles, Measured",[6]; nominal 10 ng/ml,9.57 ± 0.23 ng/mL
same,"Three freeze−thaw cycles, RE",[6]; nominal 10 ng/ml,−4.30%
same,"Three freeze−thaw cycles, Measured",[6]; nominal 40 ng/ml,39.46 ± 0.44 ng/mL
same,"Three freeze−thaw cycles, RE",[6]; nominal 40 ng/ml,−1.35%
same,"Three freeze−thaw cycles, Measured",[6]; nominal 250 ng/ml,254.65 ± 38.96 ng/mL
same,"Three freeze−thaw cycles, RE",[6]; nominal 250 ng/ml,1.86%
